Laboratory results as given in patent publication US9079913B2, “Spiro-oxindole MDM2 antagonists” (The Regents of the University of Michigan, priority 2009, dated 2015).
Where two headings read alike, the source gives them in different places.

Legend:
[1] = In vitro microsomal stability, rat; format: in vitro ADME
[2] = tested on: cancer cell lines with wild-type p53 / mutated or deleted p53 (ATCC); assay: Cell growth assay (WST-8), other cancer cell lines; format: cell-based; conditions: for IC50: Homo sapiens
[3] = tested on: Isogenic HCT-116 colon cancer cell lines; assay: cells; format: cell-based; conditions: Homo sapiens;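 further: cells grown in 96-well plates in McCoy's 5A medium with 10% FBS, exposed to compound for 4 days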
Procedure: Cells were seeded in 96-well flat bottom cell culture plates at a density of 2−3×10^3 cells/well with compounds and incubated for 4 days.

[4] = LNCaP, Table 19A, LNCAP cells, p53 wild-type, cell growth, read-out: LNCAP (p53 wild-type) IC50
[5] = PC-3, Table 19A, PC-3 cells, deleted p53, cell growth, read-out: PC-3 (deleted p53) IC50
[6] = SJSA-1, Table 19A, SJSA-1 cells, p53 wild-type, cell growth, read-out: SJSA-1 (p53 wild-type) IC50
[7] = HCT-116, read-out: HCT-116 (p53-/-) IC50, Table 19A, HCT-116 p53-/-, cell growth
[8] = HCT-116, read-out: HCT-116 (p53 wild-type) IC50, Table 19A, HCT-116 p53 wild-type, cell growth
[9] = LNCaP, read-out: LNCAP (p53 wild-type) IC50
[10] = PC-3, read-out: PC-3 (deleted p53) IC50
[11] = SJSA-1, read-out: SJSA-1 (p53 wild-type) IC50
[12] = HCT-116, read-out: HCT-116 (p53 wild-type) IC50

With `CC(C)(C)CC1NC(C(=O)NCCN2CCOCC2)C(c2cccc(Cl)c2F)C12C(=O)Nc1cc(Cl)ccc12` (stereo not drawn) [MI-63] the “% of compound remaining when incubated in rat liver microsomes” value (shortened to “% of compound remaining when incubated”) ([1]; Table 16, 0 min) was 100%, the “% of compound remaining when incubated” value ([1]; Table 16, 4 min) was 76% and the “% of compound remaining when incubated” value ([1]; Table 16, 6 min) was 57.9%. The “% of compound remaining when incubated” value ([1]; Table 16, 10 min) was 35.4%, the “% of compound remaining when incubated” value ([1]; Table 16, 15 min) was 27.7% and the “% of compound remaining when incubated” value ([1]; Table 16, 30 min) was 21%.
For `CC(C)(C)CC1NC(C(=O)NCCN2CCCC2)C(c2cccc(Cl)c2F)C12C(=O)Nc1cc(Cl)ccc12` (stereo not drawn) [MI-120], the “% of compound remaining when incubated” value ([1]; Table 16, 0 min) was 100%, the “% of compound remaining when incubated” value ([1]; Table 16, 4 min) was 95.1% and the “% of compound remaining when incubated” value ([1]; Table 16, 6 min) was 88.1%. For the same molecule, the “% of compound remaining when incubated” value ([1]; Table 16, 10 min) was 84.7%, the “% of compound remaining when incubated” value ([1]; Table 16, 15 min) was 82.1% and the “% of compound remaining when incubated” value ([1]; Table 16, 30 min) was 79%.
In the case of `CCN1CCN(CCNC(=O)C2NC(CC(C)(C)C)C3(C(=O)Nc4cc(Cl)ccc43)C2c2cccc(Cl)c2F)CC1` (stereo not drawn) [MI-129], the “% of compound remaining when incubated” value ([1]; Table 16, 0 min) is reported as 100%, the “% of compound remaining when incubated” value ([1]; Table 16, 4 min) is reported as 74.4% and the “% of compound remaining when incubated” value ([1]; Table 16, 6 min) is reported as 52.5%. The “% of compound remaining when incubated” value ([1]; Table 16, 10 min) was 41.1%, the “% of compound remaining when incubated” value ([1]; Table 16, 15 min) was 36.7% and the “% of compound remaining when incubated” value ([1]; Table 16, 30 min) was 33.1%.
In the case of `CC(C)N1CCN(CCNC(=O)[C@@H]2N[C@H](CC(C)(C)C)[C@]3(C(=O)Nc4cc(Cl)ccc43)[C@H]2c2cccc(Cl)c2F)CC1` [MI-130], the “% of compound remaining when incubated” value ([1]; Table 16, 0 min) is reported as 100%, the “% of compound remaining when incubated” value ([1]; Table 16, 4 min) is reported as 77.2% and the “% of compound remaining when incubated” value ([1]; Table 16, 6 min) is reported as 60.1%. The “% of compound remaining when incubated” value ([1]; Table 16, 10 min) was 48%, the “% of compound remaining when incubated” value ([1]; Table 16, 15 min) was 42.3% and the “% of compound remaining when incubated” value ([1]; Table 16, 30 min) was 34.1%.
`CC(C)(C)C[C@H]1N[C@@H](C(=O)NCCCN2CCCC2)[C@H](c2cccc(Cl)c2F)[C@@]12C(=O)Nc1cc(Cl)ccc12` [MI-519-43] showed an IC50 [2, 4] of 1 µM, an IC50 [2, 5] of 3.4 µM and an IC50 [2, 6] of 0.9 ± 0.1 µM. For the same molecule, the “% of compound remaining when incubated” value ([1]; Table 17, 0 min) was 100%, the “% of compound remaining when incubated” value ([1]; Table 17, 4 min) was 92.3% and the “% of compound remaining when incubated” value ([1]; Table 17, 6 min) was 86.1%. The “% of compound remaining when incubated” value ([1]; Table 17, 10 min) was 70.6%, the “% of compound remaining when incubated” value ([1]; Table 17, 15 min) was 69.9% and the “% of compound remaining when incubated” value ([1]; Table 17, 30 min) was 62.5%. For the same molecule, the “microsomal stability (in words)” value ([1]; rat liver microsomes) was “improved microsomal stability over MI-219”, the IC50 [3, 7] was 4.1 ± 0.5 µM and the IC50 [3, 8] was 0.9 µM.
In the case of `CC(C)(C)C[C@H]1N[C@@H](C(=O)NCCCN2CCN(C3CC3)CC2)[C@H](c2cccc(Cl)c2F)[C@@]12C(=O)Nc1cc(Cl)ccc12` [MI-519-48], the “% of compound remaining when incubated” value ([1]; Table 17, 0 min) is reported as 100%, the “% of compound remaining when incubated” value ([1]; Table 17, 4 min) is reported as 79.8% and the “% of compound remaining when incubated” value ([1]; Table 17, 6 min) is reported as 64.8%. The “% of compound remaining when incubated” value ([1]; Table 17, 10 min) was 48.5%, the “% of compound remaining when incubated” value ([1]; Table 17, 15 min) was 45.2% and the “% of compound remaining when incubated” value ([1]; Table 17, 30 min) was 43.7%.
In the case of `CC(C)(C)C[C@H]1N[C@@H](C(=O)N[C@H]2CC[C@H](O)C2)[C@H](c2cccc(Cl)c2F)[C@@]12C(=O)Nc1cc(Cl)ccc12` [MI-519-51-epi], the IC50 [2, 9] is reported as < 2 µM and the IC50 [2, 10] is reported as > 10 µM.
With `CC(C)(C)C[C@H]1N[C@@H](C(=O)N[C@H]2C[C@H](NS(C)(=O)=O)C2)[C@H](c2cccc(Cl)c2F)[C@@]12C(=O)Nc1cc(Cl)ccc12` [MI-519-61] the IC50 [2, 9] was < 3 µM, the IC50 [2, 11] was < 3 µM and the IC50 [3, 12] was < 3 µM.
With `CC(C)(C)C[C@H]1N[C@@H](C(=O)N[C@H]2C[C@](C)(O)C2)[C@H](c2cccc(Cl)c2F)[C@@]12C(=O)Nc1cc(Cl)ccc12` [MI-519-65] the “cell growth inhibition (in words)” value [2] was “effectively inhibit cancer cell growth”, the IC50 [2, 9] was < 3 µM and the IC50 [2, 11] was < 3 µM.
For `CC(C)(C)C[C@H]1N[C@@H](C(=O)NC2CCN(CC(F)F)CC2)[C@H](c2cccc(Cl)c2F)[C@@]12C(=O)Nc1cc(Cl)ccc12` [MI-519-66], the IC50 ([2]; LNCaP, Table 19D, LNCaP cells, read-out: LNCaP IC50) was < 3 µM, the IC50 ([2]; PC-3, Table 19D, PC3 cells, read-out: PC3 IC50) was 6.89 µM and the IC50 ([2]; Table 19D, SJSA-1 cells, unit inferred, read-out: SJSA-1) was < 3 µM. For the same molecule, the IC50 ([3]; HCT-116, read-out: HCT116p53KO IC50, Table 19D, HCT116 p53KO) was 5.51 µM and the IC50 ([3]; HCT-116, read-out: HCT116p53WT IC50, Table 19D, HCT116 p53WT) was < 2 µM.
With `CC(C)(C)C[C@H]1N[C@@H](C(=O)NC2CC(OC(=O)CN)C2)[C@H](c2cccc(Cl)c2F)[C@@]12C(=O)Nc1cc(Cl)ccc12` (stereo partly drawn) [MI-519-69] the IC50 [2, 4] was < 5 µM, the IC50 [2, 5] was > 10 µM and the IC50 [2, 6] was < 5 µM. For the same molecule, the IC50 [3, 7] was > 10 µM and the IC50 [3, 8] was < 5 µM.
For `CC(C)(C)C[C@H]1N[C@@H](C(=O)NC2CC(=O)C2)[C@H](c2cccc(Cl)c2F)[C@@]12C(=O)Nc1cc(Cl)ccc12` [MI-519-70], the IC50 [2, 4] was < 5 µM, the IC50 [2, 5] was > 10 µM and the IC50 [2, 6] was < 5 µM. For the same molecule, the IC50 [3, 7] was > 10 µM and the IC50 [3, 8] was < 5 µM.
With `CC(C)(C)C[C@@H]1N[C@@H](C(=O)N[C@H]2C[C@@](C)(O)C2)[C@H](c2cccc(Cl)c2F)[C@]12C(=O)Nc1cc(Cl)ccc12` [MI-519-6401] the IC50 [2, 9] was 0.3 µM, the IC50 [2, 10] was 10.5 µM and the IC50 [2, 11] was 0.4 µM. For the same molecule, the IC50 [3, 12] was 0.1 µM.
